From patent publication US20130273003A1, “Therapies for Treating Hepatitis C Virus Infection” (priority 2012, published 2013)
“And” between values parts separate entries of the source, which are not always exact repeats. Equal entries are not always repeated.

Tests used:
[1] = Study VX-222-102 Part A: PK and safety of VX-222 in HCV infected subjects, 3 days; assay type: in vivo, human
Description: (§1) In Part A of Study 102 subjects were randomized to VX-222 or placebo in a 6:2 (VX-222: placebo) allocation ratio to either Cohort 1, Cohort 2, Cohort 3, or Cohort 4. Subjects enrolled in Cohort 1, Cohort 2, and Cohort 3 were administered 250 mg, 500 mf, or 750 mg VX-222 or placebo twice daily (b.i.d.) for 3 days, respectively. Subjects enrolled in Cohort 4 were administered 1,500 mg VX-222 or placebo once daily (qd) for 3 days. Standard of care treatment, Peg-IFN-alpha-2a and RBV was offered to the subjects at the end of dosing in Part A for up to 48 weeks, if judged appropriate by the physician.
Subjects with genotype 1 chronic hepatitis C infection were exposed to multiple doses of VX-222 or placebo at 250 mg (Cohort 1), 500 mg (Cohort 2), or 750 mg (Cohort 3) b.i.d. for 3 days. […] The majority of the reported adverse events were mild in severity and there were no untoward adverse incidences or trends.
(§2) Study Design a& Population Multicenter, randomized, double-blinded, placebo-controlled, dose-ranging study HCV genotype 1-infected patients With no evidence of cirrhosis ALT values<5×ULM Plasma HCV RNA of ≧5 log10 IU/mL at screening 4-arm comparative study (6:2 randomization VX-222: placebo) Enrollment in this dosing—ranging study was sequential 250 mg BID for 3 days 500 mg BID for 3 days 750 mg BID for 3 days 1500 mg QD for 3 days.

genotype 1 HCV = experiment: Study VX-222-102 Part A: HCV RNA analyses (viral load reduction); assay type: in vivo, Hepatitis C virus
Description: as §1
Additional results of Study VX-222-102 are described in FIGS. 2-8: Thirty-two treatment-naïve patients with chronic genotype 1 HCV infection were enrolled in the trial, including six patients in each dose group who received 250 mg of VX-222 BID, 500 mg of VX-222 BID, 750 mg of VX-222 BID, and 1,500 mg of VX-222 QD. Two patients received placebo in each of the four dosing groups, for a total of eight patients who received placebo. Part A of the trial was conducted at 10 centers in the United States, Canada and Argentina. Of the patients enrolled in the trial, 24 patients had genotype 1a HCV infection and eight patients had genotype 1b HCV infection. Six of the patients enrolled in the trial were African American, 25 were Caucasian.
as §2

[2] = PK parameters of VX-222 in Study 101 Part C and Study 102 Part A; assay type: in vivo, human; conditions: 250 to 750 mg b.i.d.
Description: In Part C of Study 101, VX-222 was administered as multiple doses of 750 mg b.i.d. to treatment-naïve subjects with chronic hepatitis C for 3 days. In addition, in Part A of Study 102, VX-222 was administered as multiple doses ranging from 250 mg to 750 mg BID and 1500 mg once a day to treatment-naïve subjects with chronic hepatitis C for 3 days. The PK parameters of VX-222 assessed in Study 101 (final data) and Study 102 (preliminary data) are outlined below: […]

[3] = system: Huh-7, ET replicon cells (HCV replicon I389luc-ubi-neo/NS3-3'/5.1); experiment: Drug combination luciferase assay (4-day, MacSynergy analysis); assay type: cell-based, Hepatitis C virus; conditions: combination with VX-950, 4 days
Source text: Replicon cell lines Huh-7, ET cells derived from the Huh-7 hepatocarcinoma cell line are obtained from Dr. Ralf Bartenschlager (Bartenschlager, R. Innovation: Hepatitis C virus replicons: potential role for drug development. Nat. Rev. Drug Discov. 2002, 1, 911-916. Krieger, N.; Lohmann, V.; Bartenschlager, R. Enhancement of hepatitis C virus RNA replication by cell culture-adaptive mutations. J. Virol. 2001, 75, 4614-4624. Lohmann, V.; Korner, F.; Koch, J.-O.; Herian, U.; Theilmann, L.; Bartenschlager, R. Replication of subgenomic hepatitis C virus RNAs in a hepatoma cell line. Science. 1999, 285, 110-113.) (Reblikon GmbH, Gau-Odernheim, Germany). […]
Huh-7, ET replicon cells are seeded in white opaque 96-well cell culture microtiter plates at sub-confluent density (3×10^3 cells per well) in a volume of 100 μL media. […] Plates are read for Luciferase counts using a luminometer (Wallac MicroBeta Trilux, Perkin Elmer™, MA, USA). […]

genotype 1 chronic HCV = experiment: ZENITH Phase 2a study: VX-222 in combination with telaprevir (DUAL, QUAD)
[4] = Study VX-222-002: combination treatment with VX-222 and VX-950 in healthy subjects (PK, safety); conditions: Treatment Period 3: VX-222 and VX-950 simultaneously for 10 days, preliminary
[5] = 500 mg b.i.d., Day 3, HCV infected subjects

SMILES: CC1CCC(C(=O)N(c2cc(C#CC(C)(C)C)sc2C(=O)O)C2CCC(O)CC2)CC1 (stereo not drawn) [VX-222, 5-(3,3-Dimethylbut-1-ynyl)-3-[(trans-4-hydroxycyclohexyl)-(4-trans methylcyclohexanecarbonyl)amino]thiophene-2-carboxylic acid]
- AUC0-12 hr Geometric Mean [1, 5]: 29848 ng·h/mL
- tmax Median [1, 5]: 2.5 h
- most frequently reported adverse events (at least two patients per dose group) ([1]; blinded, pooled data for placebo or VX-222): diarrhea, headache, nausea, asthenia and fever
- tolerability ([1]; blinded, pooled data for placebo or VX-222, four dose groups): well-tolerated across all four dose groups
- Viral Load Reduction at Day 4, Mean (genotype 1 HCV; 250 mg b.i.d. for 3 days): −3.1
- Viral Load Reduction at Day 4, Mean (genotype 1 HCV; 500 mg b.i.d. for 3 days): −3.4
- Viral Load Reduction at Day 4, Mean (genotype 1 HCV; 750 mg b.i.d. for 3 days): −3.2
- dose proportionality of exposures [2]: increased in an approximately dose proportional manner
- synergy class with VX-950 (MacSynergy) [3]: Moderated synergy (50 uM^2%-100 uM^2%: Moderated synergy)
- volume of synergy with VX-950 (MacSynergy) ([3]; listed as 1): 90 uM^2% and 86 uM^2%
- viral breakthrough rate (genotype 1 chronic HCV; DUAL treatment arms (VX-222 with telaprevir alone), 2-sided 90% confidence interval): > 25%
- patients eligible (undetectable HCV RNA at Weeks 2 and 8) to stop treatment after 12 weeks (genotype 1 chronic HCV; higher VX-222 dose in the QUAD regimen (with telaprevir, peginterferon/ribavirin)): 50%
- severe or SAEs [4]: no reported severe or SAEs
